Laboratory results taken from patent US20040192641A1, “Special preparation of anticancer drugs made by novel nanotechnology” (priority 2003, published 2004).

How the values were obtained:
Subacute toxicity test = format: in vivo; details: 50 times the clinical dose, continually for two months
[1] = test system: Human leukemia cells (HL-60); assay: Apoptosis of cancer cells (HL-60); format: cell-based
Experimental: Human leukemia cells (HL-60) were grown in RPMI Medium 1640 supplemented with 10% (v/v) heat-inactivated FBS (56° C. for 30 min) at 37° C. in a humidified 95% air/5% CO2 atmosphere. Cells were seeded at a level of 2×10^5 cells/ml. Cells were allowed to attain a maximum density of 1.2×10^6 cells/ml before being passed by dilution into fresh medium to a concentration of 2×10^5 cells/ml.
Apoptosis determined by the following process: Cell pellets containing 5×10^6 cells were fixed with 2.5% glutaraldehyde in cacodylate buffer (pH 7.4), dehydrated through graded alcohol, and infiltrated with LX-112 epoxy resin. After overnight polymerization at 60° C. 1-μm sections were cut with glass knives using a LKB Nova microtome. The sections were stained with 1% toluidine blue and coverslipped.
DNA electrophoresis: Untreated and treated HL-60 cells collected by centrifugation, washed in phosphate buffered saline and re-suspended at a concentration of 5×10^6 cells and 0.1% RNase A. The mixture was incubated at 37° C. for 30 min and then incubated for an additional 30 min at 37° C. with 1 ml protease K. Buffer was added and 25 μl of the tube content transferred to the Horizontal 1.5% agarose gel electrophoresis was performed at 2 V/cm. DNA in gels visualized under UV light after staining with ethidium Bromide (5 μg/ml).
DNA fragmentation assays: DNA cleavage was performed, quantitation of fractional solubilized DNA by diphenylamine assay and the percentage of cells harboring fragmented DNA determined by in labeling techniques. For the diphenylamine assay, 5×10^6 cells were lysed in 0.5 mL lysis buffer (5 mmol/L Tris-HCl, 20 mmol/L DTA, and 0.5% Triton X-100, pH 8.0) at 4° C. Lysates were centrifuged (15,000 g) for separation of high molecular weight DNA (pellet) and DNA cleavage products (supernatant). DNA was precipitated with 0.5 N perchloric acid and quantitated using diphenylamine reagent. The cell cycle distribution was determined 4 hours after addition of drug and represents mean±SD of 5 independent experiments.
Human promyelocytic leukemia cells (HL-60) were grown in RPMI Medium 1640 supplemented with 10% (v/v) heat-inactivated FBS (56° C. for 30 min) at 37° C. in a humidified 95% air/5% CO2 atmosphere. Cells were seeded at a level of 2×10^5 cells/ml. Cells were allowed to attain a maximum density of 1.2×10^6 cells/ml before being passed by dilution into fresh medium to a concentration of 2×10^5 cells/ml. Apoptosis determined by the following process: Cell pellets containing 5×10^6 cells ere fixed with 2.5% glutaraldehyde in cacodylate buffer (pH 7.4), dehydrated through graded alcohol, and infiltrated with LX-112 epoxy resin. After overnight polymerization at 60° C. 1-μm sections were cut with glass knives using a LKB Nova microtome. The sections were stained with 1% toluidine blue and coverslipped. […]
DNA fragmentation assays: DNA cleavage was performed, quantitation of fractional solubilized DNA by diphenylamine assay and the percentage of cells harboring fragmented DNA determined by in labeling techniques. […] DNA was precipitated with 0.5N perchloric acid and quantitated using diphenylamine reagent. […]

tumor cells = assay: Stained dead tumor cells in peritoneal fluid of tumor-bearing mice (ELE, CPT); format: in vivo; details: 12th day of tumor inoculation
Text: (§1) The acceptable criterion for determining the anti-tumor efficacy of the formulation over the free ELE and PK-ELE-NP are the determination of the life span prolongation.
(§2) The number of dead cells in the peritoneal fluid of mice treated with PK-ELE-NP formulation increased life span when compared to free ELE.
(§3) The acceptable criterion for determining the anti-tumor efficacy of the formulation over the free drug and PK-CPT-NP are the determination of the life span prolongation. The number of dead cells in the peritoneal fluid of mice treated with PK-CPT-NP formulation increased life span when compared to free CPT.

[2] = test system: S180, ECS, HCS, ARS, U-14 and L615 transplanted tumor; assay: Growth of transplanted tumors; format: in vivo, mice; details: 20 mg/kg
Experimental: Male mice, weight 20-22 g, were used in the experiment. 1×10^7 tumor cells were injected to mouse and PK-HHT-NP injected intraperitoneally began second day. All mice were sacrificed on the 12th days, isolated the tumor and weighed and calculated the inhibition rate of tumor weight.
Male mice, weight 20-22 g, were used in the experiment. 1×10^7 tumor cells were injected to mouse and CUR and PK-CUR-NP injected intraperitoneally began second day. All mice were sacrificed on the 12th days, isolated the tumor and weighed and calculated the inhibition rate of tumor weight.
Male mice, weight 20-22 g, were used in the experiment. 1×10^7 tumor cells were injected to mouse and ELE injected intraperitoneally began second day. All mice were sacrificed on the 12th days, isolated the tumor and weighed and calculated the inhibition rate of tumor weight.
Male mice, weight 20-22 g, were used in the experiment. 1×10^7 tumor cells were injected to mouse and CPT injected intraperitoneally began second day. All mice were sacrificed on the 12th days, isolated the tumor and weighed and calculated the inhibition rate of tumor weight.

tumor-bearing mice = assay: Survival time of tumor-bearing mice (ELE, CPT); details: mouse, in vivo
Text: as §1, §2, §3

all cancer cells = assay: Inhibition of tumor cell proliferation, all cancer cells (statement); format: cell-based
Experimental: Human tumor cell lines: Hela leukemia HL-60, malignant melanocarcinoma B16, oral epidermoid carcinoma (KB), lung carcinoma (A549), breast carcinoma MCF-7, adenocarcinoma of stomach.
Animal tumor cell lines: Walker carcinoma, LLC-WRC-256, malignant melanoma (RMMI 1846), 3T3, and S-180 sarcoma (CCRF-180). All lines were routinely cultured in the RPMI1640 medium supplemented 20% fetal calf serum. The experiment was carried out in 96 microplate, each well had 5×10^5 cells and given desired concentration of 1 μg/ml (1×10^−6 g/ml) drug. Then the plate was incubated at 37° C. in an atmosphere of humidified air enriched with 5 percent carbon dioxide for 72 hours. Concentration of ELE or PK-ELE-NP is 50 ng/ml.
Inhibition percent rate of tumor cell proliferation was obtained according to the bellow formula. [formula]

Row | Compound | subacute toxicity: side effects (Subacute toxicity test) | Apoptosis (%) ([1]; concentration not given) | Number of stained dead tumor cells (1 × 10^6 cells mL^−1) (tumor cells) | growth of transplanted tumor [2] | Increase in life span T/C (%) (tumor-bearing mice) | MST (tumor-bearing mice) [days] | Apoptosis (%) ([1]; Concentration 20 μm) | Apoptosis (%) ([1]; Example 59) | Percent rates of inhibition (all cancer cells)
1 | CC[C@@]1(O)C(=O)OCc2c1cc1n(c2=O)Cc2cc3ccccc3nc2-1 [CPT, Camptothecin] | no side effects had been observed | 65.8 ± 9.8 | 5.36 ± 0.95 1 × 10^6 cells mL^−1 | could inhibit the growth | 144.3 | 33 ± 4.5 |  |  | 
2 | C=C1C[C@@]2(O)O[C@@]3(C[C@H]2C(C)C)[C@@H](C)CC[C@@H]13 [CUR, Curcumol] | no side effects had been observed | 68.3 ± 7.8 |  | could inhibit the growth |  |  |  |  | 
3 | COC(=O)C[C@](O)(CCCC(C)(C)O)C(=O)O[C@@H]1C(OC)=C[C@]23CCCN2CCc2cc4c(cc2[C@H]13)OCO4 [HHT, Homoharringtonine] |  |  |  |  |  |  | 68.3 ± 7.6 | 68.3 ± 7.6 | 
4 | Eelemene | no side effects had been observed | 69.2 ± 9.1 | 5.80 ± 0.80 1 × 10^6 cells mL^−1 | could inhibit the growth | 144.3 | 33.2 |  |  | more than 70%
